Measured values reported in patent publication US20250042884A1, “3-ARYLOXYL-3-FIVE-MEMBERED HETEROARYL PROPYLAMINE COMPOUND AND USE THEREOF” (Shanghai Leado Pharmatech Co. Ltd., priority 2018, published 2025).

What was measured:
C57BL/6 mice = assay: Mice formalin pain model (acute and inflammatory pain); type: in vivo; conditions: for Licking claw time (s) in phase II (10-60 min): hydrochloride salt, blank vehicle 349.55 ± 43.09
Source text: 150 C57BL/6 mice (male, 9-week aged) were randomly divided into 15 groups, (each group had 10 mice) for the analgesic activity test of 3 compounds in the mice formalin pain model respectively: the compound I-1 group (compound I-1 prepared in Example 2 whose hydrochloride salt was used in the experiment), the S-duloxetine group (its hydrochloride salt was used in the experiment) and the compound C1 group (the compound C1 prepared in Comparative Example 1, whose hydrochloride salt was used in the experiment). Before the start of experiments, the mice were allowed to adapt to the experimental environment for 72 h with free feeding and drinking water. The test drugs were administrated by intraperitoneal injection at a dosage as follows:
Compound I-1 group: blank vehicle (blank saline control), 0.1 mg/kg, 0.5 mg/kg, 1 mg/kg, 5 mg/kg and 10 mg/kg;
S-duloxetine group: blank vehicle (blank saline control), 1 mg/kg, 5 mg/kg, 10 mg/kg and 20 mg/kg;
Compound C1 group: blank vehicle (blank saline control), 0.1 mg/kg, 0.5 mg/kg, 1 mg/kg, 5 mg/kg and 10 mg/kg.
After administration, the mice were placed in a transparent, ventilated plexiglass cylinder for 1 h, and then 20 μl of 4% formalin solution was injected into the left hind plantar of mice of each group by microinjector, claw pain response in mice were real-time recorded by a mini-camera. The time length of licking left claw were used as an indicator of pain response, licking time in 0-10 min (phase I) and 10-60 min (phase II) were observed and recorded, and the statistical analysis was conducted. The half effective dose (ED50) of 3 compounds were calculated: ED50 referred to the dose of the drug which decreased licking time by half as compared with the blank control group. The smaller the ED50 value was, the lower the effective analgesic dose of the compound was and the better the analgesic effect was.

Sprague-Dawley rats = assay: Rat hot plate pain model (acute pain); type: in vivo
Method: Sprague-Dawley male, mature and unmated rats were placed at hot and cold plate (product model: PE34, US IITC) with constant 53±0.1° C. Mice with painful response such as licking claw, shaking claw or slightly jumping within 10-30 s were selected, and mice which evaded and jumped were abandoned. […] The test compound was freshly prepared on the day of administration. 0.9% NaCl physiological saline solution was prepared as solvent for later use. Appropriate amount of test compound was added into required volume of physiological saline and fully suspended, and the concentration of prepared drug was 1 mg/ml. […] After administration, the latency of heat pain was measured at 0.5 h, 1 h and 2 h after administration. In order to prevent animals from being scalded on the hot plate, the maximum incubation time was set to 30 s. Maximum possible effect (MPE) % was used to evaluate analgesic effect of each compound, i.e., MPE %=[(Post drug latency−baseline latency)/(30−baseline latency)]×100. MPE % at different time points was recorded.

SD rats = assay: Rat SNL model, mechanical allodynia test (nerve pain); type: in vivo; conditions: 1 h after administration, control group 3.967 ± 0.775
Method: Male SPF grade SD rats, weighed 150 g-180 g, were selected. Aseptic operation during surgery was performed. The animals were anesthetized with sodium pentobarbital (50 mg/kg, intraperitoneal injection). The surgical area of animal waist was shaved and the skin was disinfected three times with iodophor and 70% ethanol. After the skin was dried, the operation was started. Surgical knife was used to make a longitudinal incision at the back of the sacrum of the animal waist to expose the left paraspinal muscles, and stretcher was used to separate muscle tissue to expose the spine. The left spinal nerves L5 and L6 were separated and ligated with a 6-0 silk thread, and the wound was sutured. After the operation, the animals were placed on electrothermal pad, and 5 mL of saline was injected subcutaneously to prevent dehydration. After the animals were fully awakened and could move around freely, the animals were put back in the cage.
After the operation, the animals were adapted in the experimental environment for 15min/day for 3 days.
The animals were weighed to calculate the dose. […] After administration, mechanical allodynia test was performed. The rat was individually placed in a plexiglass box with a grid on the bottom of the box to ensure that the rat claw could be tested. The rats were allowed to adapt the environment for 15 min before test. After the adaptation was completed, the test fiber was used to test the center of the left hind claw of the rat. The test fiber comprises 8 test strengths: 3.61 (0.4 g), 3.84 (0.6 g), 4.08 (1 g), 4.31 (2 g), 4.56 (4 g), 4.74 (6 g), 4.93 (8 g), and 5.18 (15 g). […] During the test, rapid withdrawal of animal claw was recorded as pain response. When the test fiber was removed from animal skin, the withdrawal of animal claw was also recorded as pain response. If animal moved, the pain response was not recorded, and the test was repeated. […]
Mechanical allodynia was expressed as withdrawal threshold (PWT) in rat behavioral test, which was calculated with the following formula: […]

HepG-2 cells = assay: Cytotoxicity test (CCK-8), hepatotoxicity; type: cell-based; conditions: HepG2 cell, 72 h
Method: (§1) In this example, hepatotoxicity and neurotoxicity of compound I-1 and S-duloxetine were detected.
(§2) HepG-2 and SH-SY5Y cells were placed in 10 cm dish and cultured at 37° C., 5% CO2 in a cell incubator. Trypsin was used to digest and resuspend cells and cells were counted. The cells were transferred to 96-well plate with 8000 cells in a well (100 μl/well), cultured at 37° C., 5% CO2 in a cell incubator for 24 hrs. A serial of gradient concentration dilutions of compound I-1 (prepared in example 2 of the present invention) with 2-fold dilution were prepared, and the system was 100 μL/well. The supernatant of cell culture system in the 96-well plate was removed on the first day, and fresh-prepared drug concentration system was add into culture plate wells (duplicate wells were set). The cells were cultured at 37° C., 5% CO2 in a cell incubator for 72 h. […] Microplate reader was used to measure the absorbance at 450 nm. Data was processed to calculate cytotoxicity, and IC50 was calculated by GraphPad Prism. […]
(§3) A (Dosing): the absorbance of wells containing cells, CCK-8 solution and drug solution.
(§4) A (control): the absorbance of wells containing medium and CCK-8 solution and without cells.
(§5) A (0 Dosing): the absorbance of wells containing cells and CCK-8 solution but without drug solution […]

ICR mice = assay: Mice acetic acid writhing pain model (visceral and inflammatory pain); type: in vivo; conditions: 1 h before acetic acid, saline group 49 times
Method: Male ICR mice, 22-25 g, were fasted but allowed to drink water freely for 2 h before administration. All ICR mice were weighed and grouped randomly, each group had >10 animals. […] The drug was administrated by gavage based on the weight of mice. 1.5% acetic acid solution (0.1 ml/10 g) was injected intraperitoneally 1 h after administration, and the number of times of visceral pain in each group was observed within 30 min. When concave abdomen, stretched trunk and hind claw, and high buttocks appeared, one number point was recorded. Finally, the number of appearance of the above phenomenon was counted within 30 minutes.

SH-SY5Y cells = assay: Cytotoxicity test (CCK-8), neurotoxicity; type: cell-based; conditions: 72 h
Method: as §1, §2, §3, §4, §5

[1] = 0.5 h after administration, 30 mg/kg intraperitoneal, hydrochloride salt
[2] = 1 h after administration, 30 mg/kg intraperitoneal, hydrochloride salt
[3] = 2 h after administration, 30 mg/kg intraperitoneal, hydrochloride salt

Structure (SMILES)	Licking claw time (s) in phase II (10-60 min) (C57BL/6 mice; 1 mg/kg intraperitoneal)	Licking claw time (s) in phase II (10-60 min) (C57BL/6 mice; 5 mg/kg intraperitoneal)	Licking claw time (s) in phase II (10-60 min) (C57BL/6 mice; 10 mg/kg intraperitoneal)	MPE % (Sprague-Dawley rats; [1])	MPE % (Sprague-Dawley rats; [2])	MPE % (Sprague-Dawley rats; [3])	number of appearance of writhing reactions (visceral pain) within 30 min (ICR mice; 10 mg/kg by gavage)	further results
CNCC[C@H](Oc1cccc2ccoc12)c1cccs1 [Compound C1, (S)-3-(benzofuran-7-yloxy)-N-methyl-3-(thiophen-2-yl)propyl-1-amine]	171.57 ± 39.69 s	158.02 ± 25.18 s	35.68 ± 11.77 s	5.29 ± 1.56%	14.20 ± 5.71%	21.83 ± 2.45%	–	Licking claw time (s) in phase II (10-60 min) (C57BL/6 mice; 0.1 mg/kg intraperitoneal): 339.35 ± 27.90 s; Licking claw time (s) in phase II (10-60 min) (C57BL/6 mice; 0.5 mg/kg intraperitoneal): 368.16 ± 44.46 s
NCC1(CC(=O)O)CCCCC1 [Gabapentin, gabapentin]	–	–	–	–	–	–	–	MPE % (Sprague-Dawley rats; 0.5 h after administration, 100 mg/kg intraperitoneal): 6.47 ± 5.49%; MPE % (Sprague-Dawley rats; 1 h after administration, 100 mg/kg intraperitoneal): 14.56 ± 6.18%; MPE % (Sprague-Dawley rats; 2 h after administration, 100 mg/kg intraperitoneal): 22.66 ± 4.93%; PWT(g), claw withdrawal threshold (SD rats; 100 mg/kg oral): 6.352 ± 1.897 g
CNCC[C@H](Oc1cccc2ccccc12)c1cccs1 [S-duloxetine]	259.97 ± 64.44 s	230.49 ± 41.31 s	162.83 ± 36.27 s	5.75 ± 5.74%	7.44 ± 5.12%	13.53 ± 4.99%	27 times	IC50 (HepG-2 cells): 33.3 µM; Licking claw time (s) in phase II (10-60 min) (C57BL/6 mice; 20 mg/kg intraperitoneal): 72.27 ± 17.29 s; ED50 in phase II pain (C57BL/6 mice; intraperitoneal, dose that decreases licking time by half vs blank control): 8.00 mg/kg; number of appearance of writhing reactions (visceral pain) within 30 min (ICR mice; 20 mg/kg by gavage): 21 times; PWT(g), claw withdrawal threshold (SD rats; 10 mg/kg oral, hydrochloride salt): 6.519 ± 2.226 g; IC50 (SH-SY5Y cells): 28.6 µM
CN1[C@H]2C[C@H](OC(=O)[C@H](CO)c3ccccc3)C[C@@H]1[C@@H](O)C2 [anisodamine]	–	–	–	–	–	–	27 times	–
COc1ccc2c(c1)c(CC(=O)O)c(C)n2C(=O)c1ccc(Cl)cc1 [indomethacin]	–	–	–	–	–	–	28 times	–
